For data set [1] the following is noted: in words; cited from earlier work.
The test system of data set [2] is 6-hydroxydopamine-lesioned rats. The experiment in a line: turning behavior test in 6-hydroxydopamine-lesioned rats. The settings on record: for Average Number of Turns/rat: first 15 minutes after end of latency period. It is filed as in vivo, rat. As to the method: In this test, nigro-neostriatal-lesioned rats are employed, which are prepared by the procedure of Ungerstedt and Arbuthnott, Brain Res, 24, 485 (1970). A compound having dopamine agonist activity causes the rats to turn in circles contralateral to the side of the lesion. After a latency period, which varies from compound to compound, the number of turns is counted over a 15-minute period.
The compounds were dissolved in water and the aqueous solution injected into the rat by the intraperitoneal route.

Data set [3] relates to prolactin. The experiment in a line: inhibition of prolactin secretion in reserpine-treated male rats. On the set-up: Serum Prolactin Level: unit not given here. The settings on record: for Percent Inhibition of Serum Prolactin: vs. control of same experiment. It is filed as in vivo, rat (Sprague-Dawley). The procedure: Adult male rates of the Sprague-Dawley strain weighing about 200 g. were housed in an air-conditioned room with controlled lighting (lights on 6 a.m.-8 p.m.) and fed lab chow and water ad libitum. Each rat received an intraperitoneal injection of 2.0 mg. of reserpine in aqueous suspension 18 hours before administration of the ergoline derivative. The purpose of the reserpine was to keep prolactin levels uniformly elevated. The compounds under test were dissolved in 10 percent ethanol at a concentration of 10 mcg.ml. and were injected intraperitoneally at a standard dose of 50 mcg/kg. Each compound was administered to a group of 10 rats, and a control group of 10 intact males received an equivalent amount of 10 percent ethanol. One hour after treatment all rats were killed by decapitation, and 150 μl aliquots of serum were assayed for prolactin. The results were evaluated statistically using Student's "t" test to calculate the level of significance, "p", of the changes in prolactin level.
The difference between the prolactin level of the treated rats and prolactin level of the control rats, divided by the prolactin level of the control rats gives the percent inhibition of prolactin secretion attributable to the compounds of this invention. In the table, column 1 gives the name of the compound; column 2, the prolactin level for each group of rats; column 3, the percent prolactin inhibition; and column 4, the level of significance. The data were collected from three separate experiments, each with its own control, and Table 2 sets forth the results obtained by experiment.

Data set [4] deals with prolactin. Conditions: in words; cited from earlier work.
Data set [5] concerns dopamine receptors. The experiment in a line: inhibition of high affinity binding of tritiated dopamine to dopamine receptors in membranes from striatal synaptosomes. Details: species or system bovine. Conditions: in words.
For data set [6], the system named is serotonin. The experiment in a line: serotonin agonism. Conditions: in words.
In data set [7] the test system is dopamine receptors. Conditions: in words; cited from earlier work.
The test system of data set [8] is Parkinsonism. Conditions: in words; cited from earlier work.
[9] abbreviates: 50 mcg/kg i.p., one hour after treatment.

Where a name gives a salt, the structure may show the parent alone. A value given as a limit tells only on which side of the number the result lay.

Take `N[C@@H](Cc1ccc(O)c(O)c1)C(=O)O` [Example 1-dopa, 1-dihydroxyphenylalanine]: the metabolism result in data set [1] is recorded as “rapidly metabolized”.
On to `CCCN1C[C@H](CSC)C[C@@H]2c3cccc4[nH]c(Br)c(c34)C[C@H]21` [D-2-bromo-6-n-propyl-8β-methylmercaptomethylergoline mesylate], for which, in data set [2] (IP dose 1 mg/kg), the “% of Rats Exhibiting Turning Behavior” value came out at 100%, the “Duration of Effect” value was 1 h, the “Latency of Effect” value is 5 min and the “Average Number of Turns/rat” value is 71 Turns/rat. For the same compound, the “Percent Inhibition of Serum Prolactin” value in data set [3] (setting [9]) is on record as 89%.
Turning to `CCCN1CC(CSC)=C[C@@H]2c3cccc4[nH]cc(c34)C[C@H]21` [D-6-n-propyl-8-methylmercaptomethyl-8-ergolene maleate], in data set [2] (IP dose 1 mg/kg), the “% of Rats Exhibiting Turning Behavior” value stood at 100%, the “Duration of Effect” value amounted to 1 h and the “Latency of Effect” value worked out at 4 min. For the same compound, the “Percent Inhibition of Serum Prolactin” value in data set [3] (setting [9]) came to 91%.
Take `CCN1C[C@H](CSC)C[C@@H]2c3cccc4[nH]cc(c34)C[C@H]21` [D-6-ethyl-8β-methylmercaptomethylergoline mesylate]: in data set [2] (IP dose 1 mg/kg), the “% of Rats Exhibiting Turning Behavior” value is given as 100%, the “Duration of Effect” value was not below 2 h and the “Latency of Effect” value came to 9 min. For the same compound, the “Percent Inhibition of Serum Prolactin” value in data set [3] (setting [9]) was found to be 91%.
In the case of `CCCN1C[C@H](CSC)C=C2c3cccc4[nH]cc(c34)C[C@H]21` [D-6-n-propyl-8β-methylmercaptomethyl-9-ergolene], in data set [2] (IP dose 1 mg/kg), the “% of Rats Exhibiting Turning Behavior” value was found to be 100%, the “Duration of Effect” value is not below 2 h, the “Latency of Effect” value came to 4 min and the “Average Number of Turns/rat” value came out at 200 Turns/rat. For the same compound, the “Percent Inhibition of Serum Prolactin” value in data set [3] (setting [9]) is on record as 81%.
As to `CN1CC(CC#N)C[C@@H]2c3cccc4[nH]cc(c34)C[C@H]21` (stereo partly drawn) [D-6-methyl-8-cyanomethylergoline], in data set [4], the “activity as prolactin inhibitors” value is recorded as “activity as prolactin inhibitors”.
Consider `CCCN1C[C@H](CSC)C[C@@H]2c3cccc4[nH]cc(c34)C[C@H]21` [D-6-n-propyl-8β-methylmercaptomethylergoline methanesulfonate], for which the “Duration of Effect” value in data set [2] (IP dose 1 mg/kg) is not below 24 h. In data set [2] (vs. corresponding D-6-methyl derivative, dose response curves), the “relative potency in the turning behavior test” value is listed as “about 30 times”. Also, in data set [3] (vs. corresponding D-6-methyl compound, dose response curves), the “relative potency as a prolactin inhibitor” value is reported as “about 100 times”.
For `CC(C)C1C(=O)N2CCCC2C2(O)OC(NC(=O)C3CC4c5cccc6[nH]cc(c56)CC4N(C)C3)(C(C)C)C(=O)N12` (stereo not shown) [dihydroergocornine], the “activity as prolactin inhibitors” value in data set [4] is reported as “activity as prolactin inhibitors”.
Take `CCCN1C[C@H](COC)C[C@@H]2c3cccc4[nH]cc(c34)C[C@H]21` [D-6-n-propyl-8β-methoxymethylergoline methanesulfonate]: in data set [2] (IP dose 1 mg/kg), the “% of Rats Exhibiting Turning Behavior” value is recorded as 100%, the “Duration of Effect” value is not below 2 h and the “Latency of Effect” value stood at 6 min. Moreover, in data set [3] (setting [9]), the “Percent Inhibition of Serum Prolactin” value turned out to be 96%.
For the compound `CCCN1C[C@H](CSC)C[C@@H]2c3cccc4[nH]cc(c34)C[C@H]21` [D-6-n-Propyl-8β-methylmercaptomethylergoline], the “inhibition of high affinity binding of tritiated dopamine” value in data set [5] is “extremely potent inhibitors”. In addition, in data set [6], the “serotonin agonist / antagonist activity” value is recorded as “serotonin agonists rather than serotonin antagonists”.
Turning to `CSC[C@@H]1C[C@@H]2c3cccc4[nH]cc(c34)C[C@H]2N(C)C1` [D-6-methyl-8β-methylmercaptomethylergoline mesylate, reference compound], in data set [2] (IP dose 1 mg/kg), the “% of Rats Exhibiting Turning Behavior” value was found to be 50%, the “Duration of Effect in Hours” value was ~ 2 Hours and the “Average Number of Turns/rat” value was 51 Turns/rat. Also, the “Percent Inhibition of Serum Prolactin” value in data set [3] (setting [9]) turned out to be 58%.
As to `CC(C)[C@H]1C(=O)N2CCC[C@H]2[C@]2(O)O[C@](NC(=O)[C@@H]3C=C4c5cccc6[nH]cc(c56)C[C@H]4N(C)C3)(C(C)C)C(=O)N12` [ergocornine], the “activity as prolactin inhibitors” value in data set [4] is recorded as “activity as prolactin inhibitors”. Also, the dopamine receptor stimulation result in data set [7] is “stimulate dopamine receptors”.
On to `CCCN1C[C@H](C[S+](C)[O-])C[C@@H]2c3cccc4[nH]cc(c34)C[C@H]21` (stereo partly drawn) [D-6-n-propyl-8β-methylsulfinylmethylergoline mesylate], for which, in data set [2] (IP dose 1 mg/kg), the “% of Rats Exhibiting Turning Behavior” value came out at 100%, the “Duration of Effect” value was determined as 1 h, the “Latency of Effect” value worked out at 7 min and the “Average Number of Turns/rat” value is given as 65 Turns/rat. Also, the “Serum Prolactin Level” value in data set [3] (50 mcg/kg i.p., one hour after treatment, reserpine-treated male rats) came out at 3.3. Also, the “Percent Inhibition of Serum Prolactin” value in data set [3] (setting [9]) worked out at 92%.
With `CN1C[C@H](CC#N)C[C@@H]2c3cccc4[nH]c(Cl)c(c34)C[C@H]21` [legotrile], in data set [8], the “usefulness in the treatment of Parkinsonism” value is on record as “useful in the treatment of Parkinsonism”.
As to `CC(C)C[C@H]1C(=O)N2CCC[C@H]2[C@]2(O)O[C@](NC(=O)[C@@H]3C=C4c5cccc6[nH]c(Br)c(c56)C[C@H]4N(C)C3)(C(C)C)C(=O)N12` (stereo in doubt) [2-bromo-α-ergokryptine], the “activity as prolactin inhibitors” value in data set [4] is “activity as prolactin inhibitors”. For the same compound, the dopamine receptor stimulation entry in data set [7] is “stimulate dopamine receptors”. In addition, in data set [8], the “usefulness in the treatment of Parkinsonism” value is on record as “useful in the treatment of Parkinsonism”.

(Values after patent publication US4180582A, “6-n-Propyl-8-methoxy-methyl or methylmercaptomethylergolines and related compounds as prolactin inhibitors and to treat Parkinson's syndrome” (priority 1979, dated 1979).)
